Assay results reported in patent US20080280920A1, “Plasminogen Activator Inhibitor-1 Inhibitors” (priority 2005, published 2008).

Legend:
M14 = assay: NCI anticancer screen, M14; assay type: cell-based, human; settings: M14, Melanoma, 48 h
LOX IMVI = assay: NCI anticancer screen, LOX IMVI; assay type: cell-based, human; settings: Melanoma, 48 h
SN12C = assay: NCI anticancer screen, SN12C; assay type: cell-based, human; settings: 48 h, Renal
HCT-15 = assay: NCI anticancer screen, HCT-15; assay type: cell-based, human; settings: HCT-15, Colon, 48 h
COLO 205 = assay: NCI anticancer screen, COLO 205; assay type: cell-based, human; settings: COLO 205, Colon, 48 h
UACC-257 = assay: NCI anticancer screen, UACC-257; assay type: cell-based, human; settings: Homo sapiens; UACC-257, Melanoma, 48 h
UO-31 = assay: NCI anticancer screen, UO-31; assay type: cell-based, human; settings: UO-31, Renal, 48 h
786-0 = assay: NCI anticancer screen, 786-0; assay type: cell-based, human; settings: 786-0, Renal, 48 h
OVCAR-3 = assay: NCI anticancer screen, OVCAR-3; assay type: cell-based, human; settings: OVCAR-3, Ovarian, 48 h
HT29 = assay: NCI anticancer screen, HT29; assay type: cell-based, human; settings: HT29, Colon, 48 h
DU-145 = assay: NCI anticancer screen, DU-145; assay type: cell-based, human; settings: DU-145, Prostate, 48 h
OVCAR-8 = assay: NCI anticancer screen, OVCAR-8; assay type: cell-based, human; settings: OVCAR-8, Ovarian, 48 h
UACC-62 = assay: NCI anticancer screen, UACC-62; assay type: cell-based, human; settings: UACC-62, Melanoma, 48 h
SF-539 = assay: NCI anticancer screen, SF-539; assay type: cell-based, human; settings: SF-539, CNS, 48 h
PC-3 = assay: NCI anticancer screen, PC-3; assay type: cell-based, human; settings: PC-3, Prostate, 48 h
ACHN = assay: NCI anticancer screen, ACHN; assay type: cell-based, human; settings: Renal, 48 h
NCI-H522 = assay: NCI anticancer screen, NCI-H522; assay type: cell-based, human; settings: NCI-H522, Non-Small Cell Lung, 48 h
HOP-92 = assay: NCI anticancer screen, HOP-92; assay type: cell-based, human; settings: HOP-92, Non-Small Cell Lung, 48 h
NCI-H322M = assay: NCI anticancer screen, NCI-H322M; assay type: cell-based, human; settings: Non-Small Cell Lung, 48 h
MOLT-4 = assay: NCI anticancer screen, MOLT-4; assay type: cell-based, human; settings: MOLT-4, Leukemia, 48 h
SK-OV-3 = assay: NCI anticancer screen, SK-OV-3; assay type: cell-based, human; settings: SK-OV-3, Ovarian, 48 h
OVCAR-4 = assay: NCI anticancer screen, OVCAR-4; assay type: cell-based, human; settings: OVCAR-4, Ovarian, 48 h
MDA-MB-231/ATCC = assay: NCI anticancer screen, MDA-MB-231/ATCC; assay type: cell-based, human; settings: Breast, 48 h
A549/ATCC = assay: NCI anticancer screen, A549/ATCC; assay type: cell-based, human; settings: Non-Small Cell Lung, 48 h
NCI-H23 = assay: NCI anticancer screen, NCI-H23; assay type: cell-based, human; settings: NCI-H23, Non-Small Cell Lung, 48 h
K-562 = assay: NCI anticancer screen, K-562; assay type: cell-based, human; settings: K-562, Leukemia, 48 h
[1] = system: 60 different human cancer cell lines; assay: NCI in vitro anticancer screen (whole panel); assay type: cell-based; settings: for growth and proliferation of human primary cancer cell-lines (in words): NCI screen, 48 h
MDA-MB-435 = assay: NCI anticancer screen, MDA-MB-435; assay type: cell-based, human; settings: MDA-MB-435, Breast, 48 h
T-47D = assay: NCI anticancer screen, T-47D; assay type: cell-based, human; settings: Breast, 48 h
RXF 393 = assay: NCI anticancer screen, RXF 393; assay type: cell-based, human; settings: RXF 393, Renal, 48 h
SK-MEL-2 = assay: NCI anticancer screen, SK-MEL-2; assay type: cell-based, human; settings: SK-MEL-2, Melanoma, 48 h
IGR-OV1 = assay: NCI anticancer screen, IGR-OV1; assay type: cell-based, human; settings: IGR-OV1, Ovarian, 48 h
SK-MEL-28 = assay: NCI anticancer screen, SK-MEL-28; assay type: cell-based, human; settings: SK-MEL-28, Melanoma, 48 h
A498 = assay: NCI anticancer screen, A498; assay type: cell-based, human; settings: A498, Renal, 48 h
[2] = Homo sapiens, read-out: LC50 (the source's name)

SMILES: CC(C)(C)OC(=O)Nc1ccc(O)c(C(=O)NCCOC(=O)NCCNC(=O)c2cc(OCc3ccccc3)ccc2OCc2ccccc2)c1 [Compound Q012052, 2-[5-(BOC-amino)-2-hydroxybenzoylamino]ethyl 2-[2,5-bis-(benzyl-oxy)benzoylamino]ethylcarbamate]
- GI50 (M14; Homo sapiens): > 100 µM
- GI50 (LOX IMVI; Homo sapiens): > 100 µM
- GI50 (SN12C; Homo sapiens): > 100 µM
- GI50 (HCT-15; Homo sapiens): > 100 µM
- GI50 (COLO 205; Homo sapiens): 8.97 µM
- GI50 (UACC-257): 15.6 µM
- GI50 (UO-31; Homo sapiens): 19.9 µM
- GI50 (786-0; Homo sapiens): > 100 µM
- GI50 (OVCAR-3; Homo sapiens): > 100 µM
- GI50 (HT29; Homo sapiens, HT-29): > 100 µM
- GI50 (DU-145; Homo sapiens): > 100 µM
- GI50 (OVCAR-8; Homo sapiens): > 100 µM
- GI50 (UACC-62; Homo sapiens): > 100 µM
- GI50 (SF-539; Homo sapiens): > 100 µM
- GI50 (PC-3; Homo sapiens): 24.9 µM
- GI50 (ACHN; Homo sapiens): > 100 µM
- GI50 (NCI-H522; Homo sapiens): 49.7 µM
- GI50 (HOP-92; Homo sapiens): 83.1 µM
- GI50 (NCI-H322M; Homo sapiens): > 100 µM
- GI50 (MOLT-4; Homo sapiens): 4.05 µM
- GI50 (SK-OV-3; Homo sapiens): > 100 µM
- GI50 (OVCAR-4; Homo sapiens): 29.1 µM
- GI50 (MDA-MB-231/ATCC; Homo sapiens): > 100 µM
- GI50 (A549/ATCC; Homo sapiens): 68.8 µM
- GI50 (NCI-H23; Homo sapiens): > 100 µM
- GI50 (K-562; Homo sapiens, K562): 14 µM
- growth and proliferation of human primary cancer cell-lines (in words) [1]: inhibited growth and proliferation
- GI50 (MDA-MB-435; Homo sapiens): > 100 µM
- GI50 (T-47D; Homo sapiens, T47D): 5.05 µM
- GI50 (RXF 393; Homo sapiens): > 100 µM
- GI50 (SK-MEL-2; Homo sapiens): > 100 µM
- GI50 (IGR-OV1; Homo sapiens, IGROV-1): 25.3 µM
- GI50 (SK-MEL-28; Homo sapiens): > 100 µM
- GI50 (A498; Homo sapiens): > 100 µM

SMILES: CCOC(=O)c1ccc(CNCc2cc(CN3CCN(c4ccccn4)CC3)c(O)c(OC)c2)cc1 [Compound Q012135T]
- GI50 (M14; Homo sapiens): 17.2 µM
- CC50 (M14; [2]): 64.8 µM
- TGI (M14): 33.4 µM
- GI50 (LOX IMVI; Homo sapiens): 15.8 µM
- LC50 (concentration giving 50% net cell kill) (LOX IMVI; Homo sapiens): 63.4 µM
- TGI (LOX IMVI): 31.7 µM
- GI50 (SN12C; Homo sapiens): 21.7 µM
- CC50 (SN12C; [2]): > 100 µM
- TGI (SN12C): 55.7 µM
- TGI (HCT-15): >100 µM
- GI50 (HCT-15; Homo sapiens): 26.9 µM
- CC50 (HCT-15; [2]): > 100 µM
- TGI (COLO 205): 36.3 µM
- GI50 (COLO 205; Homo sapiens): 17 µM
- CC50 (COLO 205; [2]): 77.6 µM
- GI50 (UO-31; Homo sapiens): 11.5 µM
- CC50 (UO-31; [2]): 61.6 µM
- TGI (UO-31): 26.6 µM
- TGI (786-0): 31.0 µM
- GI50 (786-0; Homo sapiens): 16.2 µM
- CC50 (786-0; [2]): 59.2 µM
- GI50 (OVCAR-3; Homo sapiens): 14.1 µM
- CC50 (OVCAR-3; [2]): 61.2 µM
- TGI (OVCAR-3): 29.4 µM
- TGI (HT29): 31.8 µM
- GI50 (HT29; Homo sapiens, HT-29): 17.1 µM
- CC50 (HT29; Homo sapiens, HT-29, read-out: LC50 (the source's name)): 59 µM
- TGI (DU-145): 36.5 µM
- GI50 (DU-145; Homo sapiens): 17 µM
- CC50 (DU-145; [2]): 78.4 µM
- GI50 (OVCAR-8; Homo sapiens): 22.1 µM
- CC50 (OVCAR-8; [2]): > 100 µM
- TGI (OVCAR-8): 49.1 µM
- GI50 (UACC-62; Homo sapiens): 20.1 µM
- CC50 (UACC-62; [2]): 72.4 µM
- TGI (UACC-62): 38.2 µM
- GI50 (SF-539; Homo sapiens): 16 µM
- CC50 (SF-539; [2]): 57.2 µM
- TGI (SF-539): 30.2 µM
- GI50 (PC-3; Homo sapiens): 17.9 µM
- CC50 (PC-3; [2]): > 100 µM
- TGI (PC-3): 45.4 µM
- GI50 (ACHN; Homo sapiens): 29.9 µM
- CC50 (ACHN; [2]): > 100 µM
- TGI (ACHN): >100 µM
- GI50 (NCI-H522; Homo sapiens): 15.5 µM
- LC50 (concentration killing 50% of cells) (NCI-H522; Homo sapiens): 81.7 µM
- TGI (NCI-H522): 35.6 µM
- TGI (HOP-92): 31.8 µM
- GI50 (HOP-92; Homo sapiens): 12.8 µM
- LC50 (concentration killing 50% of starting cells) (HOP-92; Homo sapiens): 79.1 µM
- GI50 (NCI-H322M; Homo sapiens): 33.8 µM
- CC50 (NCI-H322M; [2]): > 100 µM
- TGI (NCI-H322M): >100 µM
- GI50 (MOLT-4; Homo sapiens): 10.1 µM
- CC50 (MOLT-4; [2]): 10.1 µM
- TGI (MOLT-4): 31.3 µM
- GI50 (SK-OV-3; Homo sapiens): 24.9 µM
- CC50 (SK-OV-3; [2]): > 100 µM
- TGI (SK-OV-3): 56.7 µM
- GI50 (OVCAR-4; Homo sapiens): 18.6 µM
- CC50 (OVCAR-4; [2]): 98 µM
- TGI (OVCAR-4): 42.7 µM
- TGI (MDA-MB-231/ATCC): 38.1 µM
- GI50 (MDA-MB-231/ATCC; Homo sapiens): 18.1 µM
- CC50 (MDA-MB-231/ATCC; [2]): 80.5 µM
- GI50 (A549/ATCC; Homo sapiens): 36.9 µM
- LC50 (A549/ATCC; Homo sapiens): > 100 µM
- TGI (A549/ATCC): >100 µM
- GI50 (NCI-H23; Homo sapiens): 34.2 µM
- CC50 (NCI-H23; [2]): > 100 µM
- TGI (NCI-H23): >100 µM
- GI50 (K-562; Homo sapiens, K562): 3.4 µM
- CC50 (K-562; Homo sapiens, K562, read-out: LC50 (the source's name)): 3.4 µM
- TGI (K-562): 14.1 µM
- growth and proliferation of human primary cancer cell-lines (in words) [1]: inhibited growth and proliferation
- cytostatic / cytotoxic effects on human cancer cell-lines (in words) ([1]; low micromolar concentrations, leukemia, melanoma, colon and central nervous system cell-lines): cytostatic and cytotoxic effects
- GI50 (MDA-MB-435; Homo sapiens): 16.9 µM
- CC50 (MDA-MB-435; [2]): 87.1 µM
- TGI (MDA-MB-435): 38.4 µM
- TGI (T-47D): 49.2 µM
- GI50 (T-47D; Homo sapiens, T47D): 14.7 µM
- CC50 (T-47D; Homo sapiens, T47D, read-out: LC50 (the source's name)): > 100 µM
- GI50 (RXF 393; Homo sapiens): 18.8 µM
- CC50 (RXF 393; [2]): 84.5 µM
- TGI (RXF 393): 39.9 µM
- GI50 (SK-MEL-2; Homo sapiens): 17.2 µM
- CC50 (SK-MEL-2; [2]): 79.5 µM
- TGI (SK-MEL-2): 36.9 µM
- GI50 (IGR-OV1; Homo sapiens, IGROV-1): 14.7 µM
- CC50 (IGR-OV1; Homo sapiens, IGROV-1, read-out: LC50 (the source's name)): > 100 µM
- TGI (IGR-OV1): 43.4 µM
- GI50 (SK-MEL-28; Homo sapiens): 15.1 µM
- CC50 (SK-MEL-28; [2]): 57.4 µM
- TGI (SK-MEL-28): 29.5 µM
- TGI (A498): 51.4 µM
- GI50 (A498; Homo sapiens): 25.8 µM
- CC50 (A498; [2]): > 100 µM
